Where two headings read alike, the source gives them in different places.
Key:
Human DNA pol α = target: T1, Human DNA pol α (Homo sapiens, UniProt P09884); test: Human DNA Polymerase Inhibition Assay, pol α; format: biochemical
T1 sequence (P09884 1-1462): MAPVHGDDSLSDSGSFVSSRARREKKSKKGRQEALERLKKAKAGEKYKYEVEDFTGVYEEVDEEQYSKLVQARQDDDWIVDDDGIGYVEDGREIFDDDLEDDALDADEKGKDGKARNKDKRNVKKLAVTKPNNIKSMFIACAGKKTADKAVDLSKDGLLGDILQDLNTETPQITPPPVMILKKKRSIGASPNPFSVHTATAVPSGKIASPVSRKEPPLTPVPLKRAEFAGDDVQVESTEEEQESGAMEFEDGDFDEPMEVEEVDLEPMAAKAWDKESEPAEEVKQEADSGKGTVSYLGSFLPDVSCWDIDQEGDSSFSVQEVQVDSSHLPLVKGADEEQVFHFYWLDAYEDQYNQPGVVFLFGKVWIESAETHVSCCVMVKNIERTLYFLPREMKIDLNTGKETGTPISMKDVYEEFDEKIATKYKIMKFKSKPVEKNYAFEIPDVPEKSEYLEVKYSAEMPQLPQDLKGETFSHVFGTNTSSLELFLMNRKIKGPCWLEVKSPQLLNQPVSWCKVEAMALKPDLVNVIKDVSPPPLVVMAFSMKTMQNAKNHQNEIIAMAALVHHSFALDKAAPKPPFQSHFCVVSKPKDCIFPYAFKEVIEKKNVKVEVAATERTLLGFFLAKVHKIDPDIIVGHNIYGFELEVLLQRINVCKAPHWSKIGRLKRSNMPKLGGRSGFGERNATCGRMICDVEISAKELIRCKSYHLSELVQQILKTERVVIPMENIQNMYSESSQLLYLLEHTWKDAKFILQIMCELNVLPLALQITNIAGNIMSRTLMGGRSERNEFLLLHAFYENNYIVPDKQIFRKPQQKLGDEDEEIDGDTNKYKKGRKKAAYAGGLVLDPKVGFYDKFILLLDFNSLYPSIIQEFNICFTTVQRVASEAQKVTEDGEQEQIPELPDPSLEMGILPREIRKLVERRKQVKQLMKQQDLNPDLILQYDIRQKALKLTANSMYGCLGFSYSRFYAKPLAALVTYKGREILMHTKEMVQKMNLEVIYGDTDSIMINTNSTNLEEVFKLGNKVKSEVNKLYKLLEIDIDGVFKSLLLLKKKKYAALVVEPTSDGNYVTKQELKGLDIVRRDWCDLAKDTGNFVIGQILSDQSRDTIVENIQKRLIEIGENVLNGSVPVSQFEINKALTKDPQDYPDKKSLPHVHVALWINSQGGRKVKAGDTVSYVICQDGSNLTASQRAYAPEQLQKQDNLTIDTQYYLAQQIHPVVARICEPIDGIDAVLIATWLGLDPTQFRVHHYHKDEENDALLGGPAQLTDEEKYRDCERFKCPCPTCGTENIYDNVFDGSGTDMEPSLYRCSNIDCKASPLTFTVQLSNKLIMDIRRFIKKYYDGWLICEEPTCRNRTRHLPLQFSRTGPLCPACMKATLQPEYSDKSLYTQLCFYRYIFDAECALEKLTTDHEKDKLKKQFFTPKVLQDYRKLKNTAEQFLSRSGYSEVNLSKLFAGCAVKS

Human DNA pol γ = target: T2, Human DNA pol γ (Homo sapiens, UniProt P54098); test: Human DNA Polymerase Inhibition Assay, pol γ; format: biochemical
T2 sequence (P54098 1-1239): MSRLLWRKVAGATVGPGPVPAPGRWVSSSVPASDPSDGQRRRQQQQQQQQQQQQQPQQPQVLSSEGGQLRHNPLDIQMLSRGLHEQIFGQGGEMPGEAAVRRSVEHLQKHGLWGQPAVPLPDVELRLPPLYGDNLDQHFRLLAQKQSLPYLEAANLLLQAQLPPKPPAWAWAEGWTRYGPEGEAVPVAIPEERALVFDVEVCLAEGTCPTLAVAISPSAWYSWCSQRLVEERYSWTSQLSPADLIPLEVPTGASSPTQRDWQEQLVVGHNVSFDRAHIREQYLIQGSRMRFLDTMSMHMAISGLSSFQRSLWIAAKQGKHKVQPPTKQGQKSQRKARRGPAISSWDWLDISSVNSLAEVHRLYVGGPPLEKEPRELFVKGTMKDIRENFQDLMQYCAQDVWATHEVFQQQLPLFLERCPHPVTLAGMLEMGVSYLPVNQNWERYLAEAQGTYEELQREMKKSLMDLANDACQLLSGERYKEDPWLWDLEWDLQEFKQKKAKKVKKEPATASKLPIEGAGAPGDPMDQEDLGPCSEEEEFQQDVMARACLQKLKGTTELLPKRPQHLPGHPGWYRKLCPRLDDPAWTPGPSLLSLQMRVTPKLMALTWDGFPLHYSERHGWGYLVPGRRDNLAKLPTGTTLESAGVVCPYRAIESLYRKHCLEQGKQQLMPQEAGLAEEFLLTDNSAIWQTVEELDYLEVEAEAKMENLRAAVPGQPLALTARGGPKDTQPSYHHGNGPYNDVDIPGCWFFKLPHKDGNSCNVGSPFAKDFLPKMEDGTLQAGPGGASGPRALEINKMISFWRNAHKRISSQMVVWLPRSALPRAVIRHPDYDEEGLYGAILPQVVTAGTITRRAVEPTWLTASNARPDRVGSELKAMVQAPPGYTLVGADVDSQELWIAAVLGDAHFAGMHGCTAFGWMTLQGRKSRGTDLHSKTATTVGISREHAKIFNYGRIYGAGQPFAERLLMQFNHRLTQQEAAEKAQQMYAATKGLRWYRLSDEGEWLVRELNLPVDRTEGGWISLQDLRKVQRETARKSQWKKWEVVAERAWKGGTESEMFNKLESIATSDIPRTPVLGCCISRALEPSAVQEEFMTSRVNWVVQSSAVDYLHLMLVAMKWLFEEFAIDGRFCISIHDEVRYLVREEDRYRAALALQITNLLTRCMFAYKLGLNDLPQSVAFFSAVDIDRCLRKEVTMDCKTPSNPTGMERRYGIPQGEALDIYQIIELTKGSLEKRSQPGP

[1] = Anti-Dengue assay, toxicity (XTT) in Vero cells; details: monkey
[2] = Anti-Dengue assay, toxicity (XTT) in Huh-7 cells; details: human
Dengue Type 2 = test: Anti-Dengue Virus Cytoprotection Assay, Dengue Type 2

IC50 (Human DNA pol α) | IC50 (Human DNA pol γ) | Structure (SMILES) | CC50 [1] | CC50 [2] | EC50 (Dengue Type 2; Huh-7, read-out: Dengue Type 2 Huh-7 Cells (EC50 uM)) | EC50 (Dengue Type 2; Vero, read-out: Dengue Type 2 Vero Cells (EC50 uM))
> 1000 µM | > 1000 µM | C[C@@]1(O)[C@H](O)[C@@H](COP(=O)(O)OP(=O)(O)OP(=O)(O)O)O[C@H]1n1ccc(=O)[nH]c1=S |  |  |  | 
 |  | CC(C)OC(=O)[C@H](C)NP(=O)(OC[C@H]1O[C@@H](n2ccc(=O)[nH]c2=S)[C@](C)(O)[C@@H]1O)Oc1ccccc1 (stereo partly drawn) [drawing 474] | > 100 µM | > 100 µM | 5.1 µM | 2.02 µM

Reference: patent EP4817687A2, “NUCLEOTIDE AND NUCLEOSIDE THERAPEUTIC COMPOSITIONS AND USES RELATED THERETO” (Emory University, priority 2013, dated 2015)
